The source of these data is ChEMBL document CHEMBL1157518, “New trypanocidal hybrid compounds from the association of hydrazone moieties and benzofuroxan heterocycle” (Bioorg Med Chem, 2008).

Data set [1] relates to Trypanosoma cruzi. The data set is described as follows: Antitrypanosomal activity against epimastigotes of Trypanosoma cruzi CL Brener. The format is functional, organism-based.
In data set [2] the target is Trypanothione reductase (Trypanosoma cruzi) (UniProt P28593). The data set is described as follows: Inhibition of Trypanosoma cruzi recombinant trypanothione reductase at 100 uM by spectrophotometry.
Chain of Trypanothione reductase (Trypanosoma cruzi) (P28593 whole entry, looked up): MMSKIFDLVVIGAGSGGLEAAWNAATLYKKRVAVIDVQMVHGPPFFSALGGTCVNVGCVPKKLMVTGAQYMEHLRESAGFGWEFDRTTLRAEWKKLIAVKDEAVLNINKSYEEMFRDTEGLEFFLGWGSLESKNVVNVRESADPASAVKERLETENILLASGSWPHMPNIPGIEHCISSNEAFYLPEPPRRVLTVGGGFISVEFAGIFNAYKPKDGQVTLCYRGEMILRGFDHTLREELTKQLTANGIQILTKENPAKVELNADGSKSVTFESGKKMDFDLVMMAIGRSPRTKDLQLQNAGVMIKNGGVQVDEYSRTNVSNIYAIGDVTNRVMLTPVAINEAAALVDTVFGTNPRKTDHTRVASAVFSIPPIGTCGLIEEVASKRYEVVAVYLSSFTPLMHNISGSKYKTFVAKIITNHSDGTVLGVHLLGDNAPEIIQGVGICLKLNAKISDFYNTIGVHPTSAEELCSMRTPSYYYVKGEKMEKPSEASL
A further data set addresses Cruzipain (Trypanosoma cruzi, UniProt P25779). The data set is described as follows: Inhibition of Trypanosoma cruzi Tulahuen 2 epimastigote cruzipain by spectrophotometry.
A further data set concerns J774. The data set is described as follows: Cytotoxicity against mouse J774 cells after 48 hrs by MTT assay. Format: cell-based. As to conditions: J774, 48 h. Background: Tetrazolium dyes change colour on reduction, which living cells bring about.
The nature of data set [3]: Selectivity index, ratio of IC50 for mouse J774 cells to IC50 for epimastigotes of Trypanosoma cruzi Tulahuen 2. As to conditions: read-out: Ratio IC50. Format: toxicity, cell-based.
The test system of data set [4] is Trypanosoma cruzi. The data set is described as follows: Antitrypanosomal activity against epimastigotes of Trypanosoma cruzi Tulahuen 2 at 25 uM relative to control. Format: functional. As to conditions: read-out: GI.
For data set [5], the target named is Trypanothione reductase (Trypanosoma cruzi) (UniProt P28593). The data set is described as follows: Inhibition of Trypanosoma cruzi recombinant trypanothione reductase at […] by spectrophotometry.
For data set [6], the system named is Trypanosoma cruzi. The data set is described as follows: Antitrypanosomal activity against epimastigotes of Trypanosoma cruzi Tulahuen 2. Format: functional, organism-based.
Data set [7] deals with Trypanothione reductase (Trypanosoma cruzi) (UniProt P28593). The data set is described as follows: Inhibition of Trypanosoma cruzi recombinant trypanothione reductase at 40 uM by spectrophotometry.
Data set [8] has as its target Cruzipain (Trypanosoma cruzi) (UniProt P25779). The data set is described as follows: Inhibition of Trypanosoma cruzi Tulahuen 2 epimastigote cruzipain at 100 uM by spectrophotometry.

The structures appear in SMILES notation. pIC50: −log10 of the molar value. A value given as a limit tells only on which side of the number the result lay.

As a reminder, the pIC50 is the negative decadic logarithm of the IC50, by convention in mol/L. Low readings indicate a large IC50, high ones a small IC50. As a reminder, the inhibition is the relative decrease from the control value, in per cent.

Chain of Cruzipain (Trypanosoma cruzi) (P25779 123-467 limits assumed): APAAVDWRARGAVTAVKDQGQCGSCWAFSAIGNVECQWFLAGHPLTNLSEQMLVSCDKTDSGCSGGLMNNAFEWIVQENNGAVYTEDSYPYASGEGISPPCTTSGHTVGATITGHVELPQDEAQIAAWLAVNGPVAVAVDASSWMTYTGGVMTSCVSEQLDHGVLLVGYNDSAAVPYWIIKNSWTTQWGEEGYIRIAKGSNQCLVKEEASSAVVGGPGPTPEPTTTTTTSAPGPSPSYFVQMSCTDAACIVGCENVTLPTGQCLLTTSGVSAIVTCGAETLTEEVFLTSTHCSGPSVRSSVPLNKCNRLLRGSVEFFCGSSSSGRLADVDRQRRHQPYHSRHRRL
Chain of Cruzipain (P25779 whole entry): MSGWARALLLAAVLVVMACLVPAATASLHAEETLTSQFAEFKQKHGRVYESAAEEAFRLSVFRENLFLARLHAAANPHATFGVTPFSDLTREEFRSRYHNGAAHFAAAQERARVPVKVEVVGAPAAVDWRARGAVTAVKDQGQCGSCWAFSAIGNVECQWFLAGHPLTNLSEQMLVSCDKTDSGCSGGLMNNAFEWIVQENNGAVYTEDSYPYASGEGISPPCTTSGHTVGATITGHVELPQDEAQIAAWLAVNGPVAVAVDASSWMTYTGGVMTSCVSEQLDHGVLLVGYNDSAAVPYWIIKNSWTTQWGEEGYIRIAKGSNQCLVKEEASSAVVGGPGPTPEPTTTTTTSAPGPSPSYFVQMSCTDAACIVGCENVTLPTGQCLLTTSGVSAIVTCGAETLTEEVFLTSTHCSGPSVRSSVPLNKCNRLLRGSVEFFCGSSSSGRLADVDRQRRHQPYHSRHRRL

Regarding `NC(=S)N/N=C/c1ccc(OCc2ccc3no[n+]([O-])c3c2)cc1`, the results for the pIC50 in the data set on Trypanosoma cruzi [1], against Cruzipain and with J774 were 4.70, 4.37 and 3.40, respectively. Also, the inhibition in [2] and in [5] was 0% in each case. Moreover, the selectivity ratio in data set [3] stood at 26.7. Also, the inhibition of growth at 25 µM with Trypanosoma cruzi [4] amounted to 70%.
The compound `CC(=O)N1CCN(c2ccc(OCC3COC(Cn4ccnc4)(c4ccc(Cl)cc4Cl)O3)cc2)CC1` (centres undefined) [KETOCONAZOLE] had a pIC50 in the data set on J774 greater than 4.30. Besides, the selectivity ratio in data set [3] was less than 5. The inhibition of growth at 25 µM in the data set with Trypanosoma cruzi [4] was 100%.
On to `N=C(N/N=C/c1ccc(O)cc1)SCc1ccc2no[n+]([O-])c2c1`, for which, in [2], the inhibition was determined as 19%. The negative logarithm of the IC50 (pIC50) is 3.85 in the data set on J774 and 5.17 in the data set with Trypanosoma cruzi [6]. Also, the selectivity ratio in [3] was found to be 20.9. Besides, the inhibition of growth at 25 µM with Trypanosoma cruzi [4] came to 100%.
As to `CC1CS(=O)(=O)CCN1/N=C/c1ccc([N+](=O)[O-])o1` (centres undefined) [NIFURTIMOX], the inhibition of growth at 25 µM in the data set on Trypanosoma cruzi [4] amounted to 100%.
For the compound `[O-][n+]1onc2ccc(/C=N/N=C/c3cc(Br)ccc3O)cc21`, the pIC50 against Cruzipain was 4.14; in the data set with J774 it was 4.08; in the data set on Trypanosoma cruzi [6] it was 4.60. In addition, the selectivity ratio in [3] was less than 3.4. In addition, the inhibition of growth at 25 µM with Trypanosoma cruzi [4] turned out to be 48%.
Turning to `NC(=S)N/N=C/c1ccc2no[n+]([O-])c2c1`, the values for the inhibition in [2], in [7] and in data set [8] were 19%, 9% and 7%, respectively. For the same compound, the pIC50 on Cruzipain is less than 4.00; in the data set with Trypanosoma cruzi [6] it was less than 4.60. In addition, the inhibition of growth at 25 µM in the data set on Trypanosoma cruzi [4] stood at 5%.
`[O-][n+]1onc2ccc(/C=N/N=C/c3ccccc3O)cc21`: the pIC50 against Cruzipain was 4.17; in the data set on Trypanosoma cruzi [6], less than 4.60. The inhibition of growth at 25 µM with Trypanosoma cruzi [4] stood at 17%.
As to `N=C(N)N/N=C/c1ccc(OCc2ccc3no[n+]([O-])c3c2)cc1`, the pIC50 with Trypanosoma cruzi [1] was 4.42; at Cruzipain, 4.49; in the data set on J774, greater than 4.30; in the data set with Trypanosoma cruzi [6], less than 4.60. In addition, the inhibition in data set [2] turned out to be 50%; in [7], 30%. The selectivity ratio in [3] was less than 2. For the same compound, the inhibition of growth at 25 µM with Trypanosoma cruzi [4] came to 40%.
Consider `C=CCNC(=S)N/N=C/c1ccc2no[n+]([O-])c2c1`, for which the results for the inhibition in data set [2], in [7] and in data set [8] were 9%, 13% and 36%, respectively. Also, the values for the pIC50 against Cruzipain and in the data set with Trypanosoma cruzi [6] were less than 4.00 and less than 4.60, respectively. The inhibition of growth at 25 µM with Trypanosoma cruzi [4] was 35%.
In the case of `NC(=O)N/N=C/c1ccc(OCc2ccc3no[n+]([O-])c3c2)cc1`, the inhibition turned out to be 0% in data set [2], 23% in data set [8] and 0% in data set [5]. Besides, the results for the pIC50 at Cruzipain and with Trypanosoma cruzi [6] were less than 4.00 and less than 4.60, respectively. In the data set with Trypanosoma cruzi [4], the inhibition of growth at 25 µM is 25%.
Take `CN(C/C=C/C#CC(C)(C)C)Cc1cccc2ccccc12` [TERBINAFINE]: the selectivity ratio in data set [3] was 5.1. Further, in the data set on Trypanosoma cruzi [4], the inhibition of growth at 25 µM stood at 100%.
With `O=Cc1ccc(OCc2ccc3no[n+]([O-])c3c2)cc1`, the inhibition in [2] was determined as 19%. The pIC50 in the data set with J774 was 4.22; with Trypanosoma cruzi [6] it was 5.06. In addition, the selectivity ratio in [3] came out at 6.9. Also, in the data set on Trypanosoma cruzi [4], the inhibition of growth at 25 µM turned out to be 98%.
For `[O-][n+]1onc2ccc(/C=N/NC(=S)Nc3ccccc3)cc21`, the pIC50 in the data set with Trypanosoma cruzi [1] is 5.59; at Cruzipain, 4.11; in the data set with J774, greater than 4.30; in the data set with Trypanosoma cruzi [6], 5.05. Moreover, the inhibition in data set [2] and in [5] was 0% throughout. Further, in [3], the selectivity ratio is less than 5.6. The inhibition of growth at 25 µM in the data set with Trypanosoma cruzi [4] stood at 93%.
On to `O=C(Cn1ccnc1[N+](=O)[O-])NCc1ccccc1` [BENZNIDAZOLE], for which the inhibition of growth at 25 µM in the data set on Trypanosoma cruzi [4] turned out to be 100%.
Take `[O-][n+]1onc2ccc(/C=N/N=C/c3ccc(O)cc3)cc21`: the pIC50 against Cruzipain is 4.00; in the data set with Trypanosoma cruzi [6], 4.60. In addition, in the data set on Trypanosoma cruzi [4], the inhibition of growth at 25 µM is 52%.
